Source: patent publication US7863271B2, “2-aminobenzoxazole carboxamides as 5HT3 modulators” (Albany Molecular Research, Inc., priority 2006, dated 2011)
Structures can show the parent of a compound that is named as a salt.

Target: T1, 5-HT3 (Homo sapiens, UniProt P46098)
T1 sequence (P46098 24-478): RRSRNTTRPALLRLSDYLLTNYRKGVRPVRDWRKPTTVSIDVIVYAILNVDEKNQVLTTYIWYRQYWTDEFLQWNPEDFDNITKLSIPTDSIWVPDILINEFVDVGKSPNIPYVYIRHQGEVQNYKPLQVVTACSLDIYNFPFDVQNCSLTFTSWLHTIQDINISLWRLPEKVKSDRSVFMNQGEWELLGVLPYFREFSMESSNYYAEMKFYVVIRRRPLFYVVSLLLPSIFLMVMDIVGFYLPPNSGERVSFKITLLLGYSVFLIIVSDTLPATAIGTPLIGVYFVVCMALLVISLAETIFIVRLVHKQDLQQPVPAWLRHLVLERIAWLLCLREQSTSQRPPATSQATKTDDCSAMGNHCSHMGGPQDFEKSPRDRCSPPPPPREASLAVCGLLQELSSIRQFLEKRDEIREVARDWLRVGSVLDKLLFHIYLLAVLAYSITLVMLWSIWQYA
Assay: Compound affinity for the human 5-HT3 receptor (Assay B), SPA radioligand binding with [9-methyl-3H]BRL-43694
Design: purchased Perkin Elmer
Details: not given
Method: Compound Affinity for the human 5-HT3 Receptor (Assay B)
The relative affinity of the various compounds for the human 5-HT3 receptor was measured in a radioligand binding assay, using a scintillation proximity assay (SPA) format. Test compounds were dissolved to 10 mM in 100% DMSO, then serially diluted at 10× assay concentrations in 100% DMSO in 96-well polypropylene plates and further diluted to 4× assay concentrations with the assay buffer. […] Binding reactions were set up in wells of PicoPlates-96 (Perkin Elmer) by adding consecutively 50 μL of each competing compound or buffer, SPA beads, the radioligand and 5-HT3 receptor membranes. After 60-min incubation at room temperature on a Nutator mixer, plates were centrifuged for 15 min at 1,500 rpm, followed by incubation in the dark for 30 min. Radioactivity was counted in the TopCount microplate counter (Perkin Elmer) for 5 min. […] Specific binding was determined by subtracting nonspecific binding from total binding. All experiments were performed in duplicate using ten concentrations of a competing ligand, with ondansetron included as a control in every run. IC50 values were determined from specific binding data using XLfit4.1 curve fitting software from IDBS Ltd. Ki values were then calculated from the Cheng-Prusoff equation.

Molecule `CN1C[C@H]2C[C@H](NC(=O)c3cccc4oc(Nc5ccccc5)nc34)C[C@@H](C1)N2C` [Example 52, Exo-N-(3,9-Dimethyl-3,9-diazabicyclo[3.3.1]nonan-7-yl)-2-(phenylamino)benzoxazole-4-carboxamide Hydrochloride] has a Ki of 27.6 nM.

Same assay, conditions: Assay B (method B unless otherwise annotated); read-out: 5-HT3 Ki

Point of comparison: `C[C@H]1CNCCN1c1nc2c(C(=O)N[C@H]3C[C@H]4CCC[C@@H](C3)N4C)cccc2o1` [Example 41a, Endo-N-(9-Methyl-9-azabicyclo[3.3.1]nonan-3-yl)-2-[(S)-2-methylpiperazin-1-yl]benzoxazole-4-carboxamide Hydrochloride], Ki 14.2 nM. Against it:
- O=C(N[C@@H]1CN2CCC1CC2)c1cccc2oc(Nc3ccncc3)nc12 [Example 28, (S)—N-(quinuclidine-8-yl)-2-(pyridin-4-ylamino)benzoxazole-4-carboxamide Dihydrochloride] — 2.7-fold lower, 5.3 nM
- CN1[C@@H]2CCC[C@H]1C[C@@H](NC(=O)c1cccc3oc(N4CCNc5ccccc54)nc13)C2 [Example 29, Endo-N-(9-Methyl-9-azabicyclo[3.3.1]non-3-yl)-2-(3,4-dihydroquinoxaline-1(2H)-yl)benzoxazole-4-carboxamide Dihydrochloride] — 3.9-fold lower, 3.6 nM
- CN(C)c1nc2c(C(=O)N[C@H]3C[C@H]4COC[C@@H](C3)N4C)cccc2o1 [Example 30, Endo-N-(9-methyl-3-oxa-9-azabicyclo[3.3.1]non-7-yl)-2-(dimethylamino)benzoxazole-4-carboxamide Hydrochloride] — 5.6-fold higher, 79 nM
- CN(C)CCN(C)c1nc2c(C(=O)N[C@H]3C[C@H]4CCC[C@@H](C3)N4C)cccc2o1 [Example 31, Endo-N-(9-methyl-9-azabicyclo[3.3.1]nonan-3-yl)-2-((2-(dimethylamino)ethyl)(methyl)amino)benzoxazole-4-carboxamide hydrochloride] — 7.5-fold higher, 107 nM
- CN(C)CCNc1nc2c(C(=O)N[C@H]3C[C@H]4CCC[C@@H](C3)N4C)cccc2o1 [Example 32, Endo-N-(9-Methyl-9-azabicyclo[3.3.1]nonan-3-yl)-2-(2-(dimethylamino)ethylamino)benzoxazole-4-carboxamide Trihydrochloride] — 16-fold higher, 234 nM
- CN1[C@@H]2CCC[C@H]1C[C@@H](NC(=O)c1cccc3oc(NCCN4CCOCC4)nc13)C2 [Example 33, Endo-N-(9-Methyl-9-azabicyclo[3.3.1]nonan-3-yl)-2-(2-morpholinoethylamino)benzoxazole-4-carboxamide Trihydrochloride] — 12-fold higher, 168 nM
- CNc1nc2c(C(=O)N[C@H]3C[C@H]4CCC[C@@H](C3)N4C)cccc2o1 [Example 34, Endo-N-(9-Methyl-9-azabicyclo[3.3.1]non-3-yl)-2-(methylamino)benzoxazole-4-carboxamide Hydrochloride] — 2.7-fold lower, 5.3 nM
- CN1[C@@H]2CCC[C@H]1C[C@@H](NC(=O)c1cccc3oc(N)nc13)C2 [Example 35, Endo-N-(9-Methyl-9-azabicyclo[3.3.1]non-3-yl)-2-aminobenzoxazole-4-carboxamide Hydrochloride] — 1.6-fold lower, 9.1 nM
- CC[C@H]1COCCN1c1nc2c(C(=O)NC3CC4CCCC(C3)N4C)cccc2o1 (stereo partly drawn) [Example 36, Endo-N-(9-Methyl-9-azabicyclo[3.3.1]nonan-3-yl)-2-((S)-3-ethylmorpholine)benzoxazole-4-carboxamide Hydrochloride] — 3-fold lower, 4.7 nM
- CN1C2CCCC1CC(NC(=O)c1cccc3oc(NC4CC5CCCC(C4)N5C)nc13)C2 (stereo not drawn) [Example 37, Endo-N-(9-Methyl-9-azabicyclo[3.3.1]nonan-3-yl)-2-(9-Methyl-9-azabicyclo[3.3.1]non-3-ylamino)benzoxazole-4-carboxamide Trihydrochloride] — 17-fold higher, 243 nM
- COCCNc1nc2c(C(=O)N[C@H]3C[C@H]4CCC[C@@H](C3)N4C)cccc2o1 [Example 38, Endo-N-(9-Methyl-9-azabicyclo[3.3.1]nonan-3-yl)-2-(2-methoxyethylamino)benzoxazole-4-carboxamide Hydrochloride] — 1.9-fold lower, 7.5 nM
- COCCCNc1nc2c(C(=O)NC3CC4CCCC(C3)N4C)cccc2o1 (stereo not drawn) [Example 39, Endo-N-(9-Methyl-9-azabicyclo[3.3.1]nonan-3-yl)-2-(3-methoxypropylamino)benzoxazole-4-carboxamide Hydrochloride] — within 1.5-fold, 13.2 nM
- CN1[C@@H]2CCC[C@H]1C[C@@H](NC(=O)c1cccc3oc(NCCCO)nc13)C2 [Example 40, Endo-N-(9-Methyl-9-azabicyclo[3.3.1]nonan-3-yl)-2-(3-hydroxypropylamino)benzoxazole-4-carboxamide Hydrochloride] — 1.8-fold lower, 7.8 nM
- C[C@@H]1CNCCN1c1nc2c(C(=O)N[C@H]3C[C@H]4CCC[C@@H](C3)N4C)cccc2o1 [Example 41b, Endo-N-(9-Methyl-9-azabicyclo[3.3.1]nonan-3-yl)-2-[(R)-2-methylpiperazin-1-yl]benzoxazole-4-carboxamide Hydrochloride] — 8.8-fold higher, 125 nM
- CN1[C@@H]2CCC[C@H]1C[C@@H](NC(=O)c1cccc3oc(N4CCN(c5ncccn5)CC4)nc13)C2 [Example 42, Endo-N-(9-Methyl-9-azabicyclo[3.3.1]nonan-3-yl)-2-(4-(pyrimidin-2-yl)piperazin-1-yl)benzoxazole-4-carboxamide Hydrochloride] — within 1.5-fold, 11 nM
- CN1CC2CC(NC(=O)c3cccc4oc(N5CCOCC5)nc34)CC(C1)N2C (stereo not drawn) [Example 43, Exo-N-(3,9-Dimethyl-3,9-diazabicyclo[3.3.1]nonan-7-yl)-2-morpholinobenzoxazole-4-carboxamide Hydrochloride] — 34-fold higher, 480 nM
- CN1[C@@H]2COC[C@H]1C[C@@H](NC(=O)c1cccc3oc(N4CCOCC4)nc13)C2 [Example 44, Endo-N-(9-Methyl-3-oxa-9-azabicyclo[3.3.1]nonan-7-yl)-2-morpholinobenzoxazole-4-carboxamide Hydrochloride] — 23-fold higher, 323 nM
- CN1[C@@H]2COC[C@H]1C[C@@H](NC(=O)c1cccc3oc(Nc4ccccc4)nc13)C2 [Example 45, Endo-N-(9-Methyl-3-oxa-9-azabicyclo[3.3.1]nonan-7-yl)-2-(phenylamino)benzoxazole-4-carboxamide Hydrochloride] — 1.6-fold higher, 22.6 nM
- CN(C)C(=O)CNc1nc2c(C(=O)N[C@H]3C[C@H]4CCC[C@@H](C3)N4C)cccc2o1 [Example 47, Endo-N-(9-Methyl-9-azabicyclo[3.3.1]nonan-3-yl)-2-(2-(dimethylamino)-2-oxoethylamino)benzoxazole-4-carboxamide Dihydrochloride] — 9.6-fold higher, 137 nM
- CC(C)[C@H]1COCCN1c1nc2c(C(=O)NC3CC4CCCC(C3)N4C)cccc2o1 (stereo partly drawn) [Example 48, Endo-N-(9-Methyl-9-azabicyclo[3.3.1]nonan-3-yl)-2-((S)-3-isopropylmorpholino)benzoxazole-4-carboxamide Hydrochloride] — 2.4-fold lower, 6 nM
- CN1C[C@H]2C[C@@H](NC(=O)c3cccc4oc(Nc5ccccc5)nc34)C[C@@H](C1)N2C [Example 51, Endo-N-(3,9-Dimethyl-3,9-diazabicyclo[3.3.1]nonan-7-yl)-2-(phenylamino)benzoxazole-4-carboxamide Hydrochloride] — 15-fold higher, 212 nM
- CN1[C@@H]2CCC[C@H]1C[C@@H](NC(=O)c1cccc3oc(N4CCC[C@H]4C(N)=O)nc13)C2 [Example 53, Endo-N-(9-Methyl-9-azabicyclo[3.3.1]non-3-yl)-2-((S)-2-carbamoylpyrrolidin-1-yl)benzoxazole-4-carboxamide Hydrochloride] — 15-fold higher, 212 nM
- CN1[C@@H]2CCC[C@H]1C[C@@H](NC(=O)c1cccc3oc(N4CCn5c(nnc5C(F)(F)F)C4)nc13)C2 [Example 54, Endo-N-(9-Methyl-9-azabicyclo[3.3.1]nonan-3-yl)-2-(3-(trifluoromethyl)-5,6-dihydro-[1,2,4]triazolo[4,3-a]pyrazin-7(8H)-yl)benzoxazole-4-carboxamide Hydrochloride] — 8.3-fold higher, 118 nM
- CN1[C@@H]2CCC[C@H]1C[C@@H](NC(=O)c1cccc3oc(=O)[nH]c13)C2 [Example 56, Endo-N-(9-Methyl-9-azabicyclo[3.3.1]nonan-3-yl)-2-oxo-2,3-dihydrobenzoxazole-4-carboxamide Hydrochloride] — 5.1-fold higher, 72 nM
- C[C@H]1CNCCN1c1nc2c(C(=O)NC3CC4CCCC(C3)N4C)cc(Cl)cc2o1 (stereo partly drawn) [Example 57, Endo-N-(9-methyl-9-azabicyclo[3.3.1]nonan-3-yl)-6-chloro-2-((S)-2-methylpiperazin-1-yl)benzoxazole-4-carboxamide Hydrochloride] — within 1.5-fold, 11.4 nM
- CN1CCN(c2nc3c(C(=O)N[C@H]4C[C@H]5CCC[C@@H](C4)N5C)cc(Cl)cc3o2)CC1 [Example 58, Endo-N-(9-methyl-9-azabicyclo[3.3.1]nonan-3-yl)-6-chloro-2-(4-methylpiperazin-1-yl)benzoxazole-4-carboxamide Hydrochloride] — within 1.5-fold, 11.9 nM
